According to ChEMBL document CHEMBL1201862, “PubChem BioAssay data set” (2004):
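A five-concentration, 48-hour dose response in 96-well plates underlies each endpoint, interpolated linearly between surrounding concentrations. GI50 marks 50% less growth.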 Activity calls are given as the source filed them. Cut-off read from the data, not from the text of the source: active = GI50 up to about 1.1 µM and inactive = higher.

How the values were obtained:
Experiment in all cases: DTP human tumour cell line panel, 48 h
SNB-78 = test system: SNB-78
MCF7 = test system: MCF7
T47D = test system: T47D
NCI-H522 = test system: NCI-H522
KM12 = test system: KM12
MDA-MB-231 = test system: MDA-MB-231
786-0 = test system: 786-0
NCI-H23 = test system: NCI-H23
DMS-273 = test system: DMS-273
MDA-N = test system: MDA-N
HL-60 = test system: HL-60
DMS-114 = test system: DMS-114
CAKI-1 = test system: CAKI-1
SNB-75 = test system: SNB-75
LXFL 529 = test system: LXFL 529
K562 = test system: K562
KM-20L2 = test system: KM-20L2
SK-MEL-5 = test system: SK-MEL-5
HOP-92 = test system: HOP-92
SF-539 = test system: SF-539
OVCAR-5 = test system: OVCAR-5
HCC 2998 = test system: HCC 2998
A498 = test system: A498
RPMI-8226 = test system: RPMI-8226
UO-31 = test system: UO-31
NCI-H460 = test system: NCI-H460
NCI/ADR-RES = test system: NCI/ADR-RES
MOLT-4 = test system: MOLT-4
TK-10 = test system: TK-10
XF498 = test system: XF498
M14 = test system: M14
BT-549 = test system: BT-549
HOP-62 = test system: HOP-62
OVCAR-8 = test system: OVCAR-8
LOX IMVI = test system: LOX IMVI
SN12C = test system: SN12C
SF-295 = test system: SF-295
SK-MEL-2 = test system: SK-MEL-2
U-251 = test system: U-251
HCT-116 = test system: HCT-116
SNB-19 = test system: SNB-19
PC-3 = test system: PC-3
UACC-62 = test system: UACC-62
SK-OV-3 = test system: SK-OV-3
DU-145 = test system: DU-145
HT-29 = test system: HT-29
HCT-15 = test system: HCT-15
NCI-H226 = test system: NCI-H226
A549 = test system: A549
Malme-3M = test system: Malme-3M
SK-MEL-28 = test system: SK-MEL-28
OVCAR-3 = test system: OVCAR-3
M19-MEL = test system: M19-MEL
SW-620 = test system: SW-620
DLD-1 = test system: DLD-1
RXF 393 = test system: RXF 393
EKVX = test system: EKVX
UACC-257 = test system: UACC-257
CCRF-CEM = test system: CCRF-CEM
ACHN = test system: ACHN
HOP-18 = test system: HOP-18
COLO 205 = test system: COLO 205
Hs-578T = test system: Hs-578T
SR = test system: SR
MDA-MB-435 = test system: MDA-MB-435
RXF 631 = test system: RXF 631
OVCAR-4 = test system: OVCAR-4
IGROV-1 = test system: IGROV-1
SF-268 = test system: SF-268

For O=C(NC(c1ccccc1)C(O)C(=O)OCc1ccc2c(c1)C(=O)c1ccccc1C2=O)c1ccccc1 (stereo unspecified), the GI50 (SNB-78) was 56.6 µM (inactive), the GI50 (MCF7) was 17.7 µM (inactive) and the GI50 (T47D) was 15.2 µM (inactive). For the same compound, the GI50 (NCI-H522) was 14.8 µM (inactive), the GI50 (KM12) was 57.4 µM (inactive) and the GI50 (MDA-MB-231) was 15 µM (inactive). For the same compound, the GI50 (786-0) was 2.94 µM (inactive), the GI50 (NCI-H23) was 12 µM (inactive) and the GI50 (DMS-273) was 18.6 µM (inactive). For the same compound, the GI50 (MDA-N) was 30.5 µM (inactive), the GI50 (HL-60) was > 83.6 µM (inactive) and the GI50 (DMS-114) was 12.6 µM (inactive). The GI50 (CAKI-1) was 8.65 µM (inactive), the GI50 (SNB-75) was 4.37 µM (inactive) and the GI50 (LXFL 529) was 44.7 µM (inactive). The GI50 (K562) was > 90.6 µM (inactive), the GI50 (KM-20L2) was > 51.2 µM (inactive) and the GI50 (SK-MEL-5) was 13.6 µM (inactive). For the same compound, the GI50 (HOP-92) was 3.15 µM (inactive), the GI50 (SF-539) was 6.31 µM (inactive) and the GI50 (OVCAR-5) was 58.7 µM (inactive). The GI50 (HCC 2998) was 39.6 µM (inactive), the GI50 (A498) was 5.71 µM (inactive) and the GI50 (RPMI-8226) was 35.8 µM (inactive). For the same compound, the GI50 (UO-31) was 2.86 µM (inactive), the GI50 (NCI-H460) was 14.9 µM (inactive) and the GI50 (NCI/ADR-RES) was 4.35 µM (inactive). For the same compound, the GI50 (MOLT-4) was 74.6 µM (inactive), the GI50 (TK-10) was 15.2 µM (inactive) and the GI50 (XF498) was 16 µM (inactive). The GI50 (M14) was 36.1 µM (inactive), the GI50 (BT-549) was 35.3 µM (inactive) and the GI50 (HOP-62) was 3.62 µM (inactive). The GI50 (OVCAR-8) was 4.25 µM (inactive), the GI50 (LOX IMVI) was 13.2 µM (inactive) and the GI50 (SN12C) was 8.69 µM (inactive). For the same compound, the GI50 (SF-295) was 10.6 µM (inactive), the GI50 (SK-MEL-2) was 18.1 µM (inactive) and the GI50 (U-251) was 5.46 µM (inactive). For the same compound, the GI50 (HCT-116) was 3.94 µM (inactive), the GI50 (SNB-19) was 5.47 µM (inactive) and the GI50 (PC-3) was 17.2 µM (inactive). For the same compound, the GI50 (UACC-62) was 14.7 µM (inactive), the GI50 (SK-OV-3) was 5.18 µM (inactive) and the GI50 (DU-145) was 54.7 µM (inactive). The GI50 (HT-29) was 61.4 µM (inactive), the GI50 (HCT-15) was over 95.3 µM and the GI50 (NCI-H226) was 4.61 µM (inactive). The GI50 (A549) was 9.91 µM (inactive), the GI50 (Malme-3M) was 11.4 µM (inactive) and the GI50 (SK-MEL-28) was 28.1 µM (inactive). The GI50 (OVCAR-3) was 12.6 µM (inactive), the GI50 (M19-MEL) was 53.6 µM (inactive) and the GI50 (SW-620) was 63.5 µM (inactive). For the same compound, the GI50 (DLD-1) was 21.2 µM (inactive), the GI50 (RXF 393) was 3.13 µM (inactive) and the GI50 (EKVX) was 24.7 µM (inactive). The GI50 (UACC-257) was 28.5 µM (inactive), the GI50 (CCRF-CEM) was 77.3 µM (inactive) and the GI50 (ACHN) was 9.31 µM (inactive). For the same compound, the GI50 (HOP-18) was 3.56 µM (inactive), the GI50 (COLO 205) was 48.4 µM (inactive) and the GI50 (Hs-578T) was 34.8 µM (inactive). For the same compound, the GI50 (SR) was 57.9 µM (inactive), the GI50 (MDA-MB-435) was 34.4 µM (inactive) and the GI50 (RXF 631) was 30.5 µM (inactive). For the same compound, the GI50 (OVCAR-4) was 2.2 µM (inactive), the GI50 (IGROV-1) was 18.5 µM (inactive) and the GI50 (SF-268) was 17.1 µM (inactive).
O=c1cnn(C2OC(CO)C(O)C2O)c(=S)[nH]1 (stereo unspecified) was tested, and the GI50 (SNB-78) was > 91.2 µM (inactive), the GI50 (MCF7) was 10.6 µM (inactive) and the GI50 (T47D) was > 100 µM (inactive). For the same compound, the GI50 (NCI-H522) was 16.4 µM (inactive), the GI50 (KM12) was 22.3 µM (inactive) and the GI50 (MDA-MB-231) was > 100 µM (inactive). For the same compound, the GI50 (NCI-H23) was > 94 µM (inactive), the GI50 (DMS-273) was 2.31 µM (inactive) and the GI50 (MDA-N) was > 100 µM (inactive). For the same compound, the GI50 (HL-60) was 2.05 µM (inactive), the GI50 (DMS-114) was 29.6 µM (inactive) and the GI50 (CAKI-1) was 2.55 µM (inactive). The GI50 (SNB-75) was > 100 µM (inactive), the GI50 (LXFL 529) was 11.5 µM (inactive) and the GI50 (K562) was 0.589 µM (active). The GI50 (KM-20L2) was 28.9 µM (inactive), the GI50 (SK-MEL-5) was > 55.5 µM (inactive) and the GI50 (HOP-92) was > 100 µM (inactive). For the same compound, the GI50 (SF-539) was 66.5 µM (inactive), the GI50 (OVCAR-5) was > 78.3 µM (inactive) and the GI50 (HCC 2998) was > 87.1 µM (inactive). The GI50 (A498) was > 100 µM (inactive), the GI50 (RPMI-8226) was 0.993 µM (active) and the GI50 (UO-31) was 28.2 µM (inactive). The GI50 (NCI-H460) was 0.316 µM (active), the GI50 (NCI/ADR-RES) was > 79.3 µM (inactive) and the GI50 (MOLT-4) was 0.938 µM (active). The GI50 (TK-10) was > 100 µM (inactive), the GI50 (XF498) was > 100 µM (inactive) and the GI50 (M14) was > 100 µM (inactive). For the same compound, the GI50 (BT-549) was > 100 µM (inactive), the GI50 (HOP-62) was > 63.7 µM (inactive) and the GI50 (OVCAR-8) was 10.6 µM (inactive). For the same compound, the GI50 (LOX IMVI) was 1.24 µM (inactive), the GI50 (SN12C) was > 82 µM (inactive) and the GI50 (SF-295) was 11.9 µM (inactive). The GI50 (SK-MEL-2) was 20.4 µM (inactive), the GI50 (U-251) was 3.03 µM (inactive) and the GI50 (HCT-116) was 1.67 µM (inactive). For the same compound, the GI50 (SNB-19) was 43.1 µM (inactive), the GI50 (PC-3) was 8.73 µM (inactive) and the GI50 (UACC-62) was 19.4 µM (inactive). For the same compound, the GI50 (SK-OV-3) was > 100 µM (inactive), the GI50 (DU-145) was 9.4 µM (inactive) and the GI50 (HT-29) was 13.5 µM (inactive). For the same compound, the GI50 (HCT-15) was 2.09 µM, the GI50 (NCI-H226) was > 100 µM (inactive) and the GI50 (A549) was 2.15 µM (inactive). The GI50 (Malme-3M) was > 77.8 µM (inactive), the GI50 (SK-MEL-28) was > 100 µM (inactive) and the GI50 (OVCAR-3) was > 54.2 µM (inactive). For the same compound, the GI50 (M19-MEL) was 43.1 µM (inactive), the GI50 (SW-620) was 5.21 µM (inactive) and the GI50 (DLD-1) was 8.47 µM (inactive). For the same compound, the GI50 (RXF 393) was > 100 µM (inactive), the GI50 (EKVX) was > 100 µM (inactive) and the GI50 (UACC-257) was > 100 µM (inactive). The GI50 (CCRF-CEM) was 2.52 µM (inactive), the GI50 (HOP-18) was > 79.1 µM (inactive) and the GI50 (COLO 205) was 54.1 µM (inactive). For the same compound, the GI50 (Hs-578T) was > 100 µM (inactive), the GI50 (SR) was 1.02 µM (active) and the GI50 (MDA-MB-435) was > 100 µM (inactive). The GI50 (RXF 631) was 14.3 µM (inactive), the GI50 (OVCAR-4) was > 100 µM (inactive) and the GI50 (IGROV-1) was 28.7 µM (inactive). For the same compound, the GI50 (SF-268) was 11.1 µM (inactive).
